The record followed here is patent US12331044B2, “Inhibitors of histone deacetylase useful for the treatment or prevention of HIV infection” (Merck Sharp & Dohme LLC, priority 2018, dated 2025).

One assay concerns the target human HDAC2 (Homo sapiens (Human), UniProt Q92769). In words: HDAC2 inhibition assay (modified FLUOR DE LYS, 384-well). Format: biochemical. Conditions: […] enzyme, 40 μM substrate BML-KI104, 3 h pre-incubation; read-out: HDAC2 IC50.
In a further assay the test system is KARN cells (Jurkat 2C4). In words: cells. Conditions: Homo sapiens.
The target of assay [1] is human HDAC3/SMRT heterodimer (Homo sapiens (Human), UniProt O15379).
human HDAC3/SMRT heterodimer, sequence (O15379 whole entry): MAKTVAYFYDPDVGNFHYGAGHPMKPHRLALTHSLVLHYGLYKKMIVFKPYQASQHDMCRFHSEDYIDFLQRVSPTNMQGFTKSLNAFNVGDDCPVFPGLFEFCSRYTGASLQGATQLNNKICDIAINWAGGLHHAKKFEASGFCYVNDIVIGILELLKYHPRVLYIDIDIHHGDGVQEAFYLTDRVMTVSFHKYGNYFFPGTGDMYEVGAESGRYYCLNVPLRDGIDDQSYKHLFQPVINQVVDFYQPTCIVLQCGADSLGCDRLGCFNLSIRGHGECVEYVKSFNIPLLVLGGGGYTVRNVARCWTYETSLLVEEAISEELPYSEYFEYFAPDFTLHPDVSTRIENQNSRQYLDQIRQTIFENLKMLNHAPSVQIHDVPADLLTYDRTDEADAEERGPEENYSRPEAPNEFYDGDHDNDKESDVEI
human HDAC3/SMRT heterodimer, sequence (Q9Y618 1-899 partner): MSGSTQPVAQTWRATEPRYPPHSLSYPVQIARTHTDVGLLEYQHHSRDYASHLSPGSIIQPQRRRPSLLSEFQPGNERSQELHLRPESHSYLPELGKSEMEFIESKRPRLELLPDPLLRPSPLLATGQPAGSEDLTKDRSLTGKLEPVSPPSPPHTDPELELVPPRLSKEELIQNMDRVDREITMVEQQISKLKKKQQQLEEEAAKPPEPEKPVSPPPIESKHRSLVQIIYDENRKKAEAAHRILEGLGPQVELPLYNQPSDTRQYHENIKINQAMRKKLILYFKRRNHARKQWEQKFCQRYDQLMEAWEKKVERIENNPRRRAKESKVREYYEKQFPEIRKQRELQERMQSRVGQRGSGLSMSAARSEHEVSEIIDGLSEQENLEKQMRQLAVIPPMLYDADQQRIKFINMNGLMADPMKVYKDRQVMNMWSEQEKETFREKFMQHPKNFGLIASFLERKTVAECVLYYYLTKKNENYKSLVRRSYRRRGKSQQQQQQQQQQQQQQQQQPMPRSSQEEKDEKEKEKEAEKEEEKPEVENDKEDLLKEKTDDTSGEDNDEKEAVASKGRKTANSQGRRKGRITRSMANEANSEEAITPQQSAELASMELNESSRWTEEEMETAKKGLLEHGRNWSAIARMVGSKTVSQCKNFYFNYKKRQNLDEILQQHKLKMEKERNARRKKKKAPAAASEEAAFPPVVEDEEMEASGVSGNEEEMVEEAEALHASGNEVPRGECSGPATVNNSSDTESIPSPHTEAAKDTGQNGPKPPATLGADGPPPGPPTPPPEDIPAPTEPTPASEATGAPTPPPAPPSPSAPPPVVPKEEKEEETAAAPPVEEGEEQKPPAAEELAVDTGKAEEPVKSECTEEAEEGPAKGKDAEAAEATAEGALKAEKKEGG
The target in another assay is human HDAC1 (Homo sapiens (Human), UniProt Q13547).
human HDAC1, sequence (Q13547 whole entry): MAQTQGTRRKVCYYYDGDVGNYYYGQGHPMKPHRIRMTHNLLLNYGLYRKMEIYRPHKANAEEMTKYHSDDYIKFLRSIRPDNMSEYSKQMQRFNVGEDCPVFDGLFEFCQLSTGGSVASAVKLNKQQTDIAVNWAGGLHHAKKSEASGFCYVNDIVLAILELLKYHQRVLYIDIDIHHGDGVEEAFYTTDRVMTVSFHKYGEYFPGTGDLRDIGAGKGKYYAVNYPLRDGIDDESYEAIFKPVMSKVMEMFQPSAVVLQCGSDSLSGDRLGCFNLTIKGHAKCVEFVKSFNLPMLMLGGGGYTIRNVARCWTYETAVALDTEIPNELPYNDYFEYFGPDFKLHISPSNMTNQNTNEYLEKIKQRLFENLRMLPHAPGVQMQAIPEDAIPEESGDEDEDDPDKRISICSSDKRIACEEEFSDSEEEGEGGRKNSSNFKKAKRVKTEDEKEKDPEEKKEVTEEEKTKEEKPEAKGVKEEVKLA
For another assay, the target named is HDAC6 (Homo sapiens (Human), UniProt Q9UBN7).
HDAC6, sequence (Q9UBN7 whole entry): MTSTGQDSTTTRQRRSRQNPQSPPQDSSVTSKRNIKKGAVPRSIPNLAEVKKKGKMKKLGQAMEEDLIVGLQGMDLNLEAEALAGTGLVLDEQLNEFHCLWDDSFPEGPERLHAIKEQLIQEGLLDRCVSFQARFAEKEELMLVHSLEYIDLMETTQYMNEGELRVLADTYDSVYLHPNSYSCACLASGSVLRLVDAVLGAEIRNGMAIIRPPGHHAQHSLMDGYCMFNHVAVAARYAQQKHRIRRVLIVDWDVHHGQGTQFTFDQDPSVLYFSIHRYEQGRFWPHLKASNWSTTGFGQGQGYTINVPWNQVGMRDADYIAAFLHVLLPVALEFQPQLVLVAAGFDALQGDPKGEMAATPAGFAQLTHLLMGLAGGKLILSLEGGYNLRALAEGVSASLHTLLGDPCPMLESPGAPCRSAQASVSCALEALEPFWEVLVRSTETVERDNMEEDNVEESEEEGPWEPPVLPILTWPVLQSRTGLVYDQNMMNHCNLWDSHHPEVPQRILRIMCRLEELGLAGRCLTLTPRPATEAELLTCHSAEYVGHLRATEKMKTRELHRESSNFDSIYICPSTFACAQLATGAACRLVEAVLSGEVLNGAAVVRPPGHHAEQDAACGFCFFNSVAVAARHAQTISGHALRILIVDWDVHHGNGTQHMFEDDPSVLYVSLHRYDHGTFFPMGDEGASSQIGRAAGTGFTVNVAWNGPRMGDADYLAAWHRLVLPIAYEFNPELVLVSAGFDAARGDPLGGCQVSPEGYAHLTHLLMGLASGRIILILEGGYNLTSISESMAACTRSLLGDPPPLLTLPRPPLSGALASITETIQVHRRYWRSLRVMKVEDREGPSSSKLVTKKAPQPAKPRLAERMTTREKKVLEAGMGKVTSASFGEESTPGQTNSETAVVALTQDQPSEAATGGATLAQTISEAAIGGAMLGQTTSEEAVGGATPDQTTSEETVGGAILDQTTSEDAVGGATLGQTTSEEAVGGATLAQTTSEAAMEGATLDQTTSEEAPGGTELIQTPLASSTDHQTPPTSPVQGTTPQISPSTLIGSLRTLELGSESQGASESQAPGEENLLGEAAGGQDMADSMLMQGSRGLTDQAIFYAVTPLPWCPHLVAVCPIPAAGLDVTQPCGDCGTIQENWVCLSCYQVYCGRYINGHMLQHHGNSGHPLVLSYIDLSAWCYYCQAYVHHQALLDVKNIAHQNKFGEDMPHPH
Another assay has as its target human HDAC8 (Homo sapiens (Human), UniProt Q9BY41). In words: HDAC8 inhibition assay (modified FLUOR DE LYS, 384-well). Format: biochemical. The settings on record: […] enzyme, 200 μM substrate BML-KI178, 3 h pre-incubation; read-out: HDAC8 IC50.
The mark [2] stands for this setting: read-out: Karn EC50 nM 0.1% NHS, 0.1% normal human serum, luciferase induction, 2 μM SAHA = 100%.
Where [3] appears, read: read-out: Karn EC50 nM 5% NHS, 5% normal human serum, luciferase induction, 2 μM SAHA = 100%.

Where two headings read alike, the source gives them in different places.

human HDAC2, sequence (Q92769 whole entry): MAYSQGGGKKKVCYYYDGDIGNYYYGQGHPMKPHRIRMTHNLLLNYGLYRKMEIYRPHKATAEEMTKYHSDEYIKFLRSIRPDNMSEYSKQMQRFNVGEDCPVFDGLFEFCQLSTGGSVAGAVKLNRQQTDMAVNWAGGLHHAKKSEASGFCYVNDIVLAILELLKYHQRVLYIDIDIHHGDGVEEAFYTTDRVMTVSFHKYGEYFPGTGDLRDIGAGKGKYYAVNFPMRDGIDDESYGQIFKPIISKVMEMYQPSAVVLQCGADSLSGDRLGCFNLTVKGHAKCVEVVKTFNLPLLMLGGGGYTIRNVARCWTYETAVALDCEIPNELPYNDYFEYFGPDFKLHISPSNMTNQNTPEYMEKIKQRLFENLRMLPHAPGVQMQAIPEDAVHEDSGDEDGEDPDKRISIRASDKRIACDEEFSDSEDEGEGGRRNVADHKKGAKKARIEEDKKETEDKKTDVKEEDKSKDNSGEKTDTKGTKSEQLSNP
human HDAC8, sequence (Q9BY41 whole entry): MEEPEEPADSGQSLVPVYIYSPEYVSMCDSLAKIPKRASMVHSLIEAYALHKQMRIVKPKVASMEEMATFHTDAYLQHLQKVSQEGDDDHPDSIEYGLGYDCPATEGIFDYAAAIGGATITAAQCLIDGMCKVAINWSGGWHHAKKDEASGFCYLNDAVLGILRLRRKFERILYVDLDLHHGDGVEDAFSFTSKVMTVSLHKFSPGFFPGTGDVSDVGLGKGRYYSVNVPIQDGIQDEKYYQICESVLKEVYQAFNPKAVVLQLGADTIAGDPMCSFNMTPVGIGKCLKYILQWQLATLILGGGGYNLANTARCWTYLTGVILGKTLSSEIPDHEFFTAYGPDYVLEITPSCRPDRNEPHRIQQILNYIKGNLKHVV

With `COc1cc2nc(C)ccc2cc1-c1cnc([C@H](CCCCCC(=O)c2cc(C)on2)NC(=O)C2CN(C)C2)[nH]1` [Example 57], the IC50 on human HDAC2 was determined as 1 nM; in assay [1], 0.24 nM; at human HDAC1 it was 0.23 nM; against HDAC6, 45 µM; on human HDAC8, 150 nM. For the same compound, the EC50 in the assay with KARN cells (Jurkat 2C4) (setting [2]) amounted to 5.5 nM; with KARN cells (Jurkat 2C4) (setting [3]) it was 13 nM.

As to `COc1cc2nc(C)ccc2cc1-c1cnc([C@H](CCCCCC(=O)c2cc(C)on2)NC(=O)C2CC23CCN(C)CC3)[nH]1` (stereo partly drawn) [Example 58], the IC50 was determined as 0.9 nM on human HDAC2; 0.18 nM in assay [1]; 0.18 nM at human HDAC1; 45 µM against HDAC6; 120 nM on human HDAC8. Besides, the EC50 in the assay with KARN cells (Jurkat 2C4) (setting [2]) amounted to 6.8 nM; in the assay with KARN cells (Jurkat 2C4) (setting [3]) it was 11 nM.

In the case of `CN(C)C1(C(=O)N[C@@H](CCCCCC(=O)c2ccon2)c2ncc(-c3ccccc3F)[nH]2)CCC1` [Example 63], the IC50 on human HDAC2 is 2.1 nM; in assay [1], 0.46 nM; against human HDAC1, 0.54 nM; on HDAC6, more than 0.9 µM; at human HDAC8, 3.8 nM. Moreover, the results for the concentration for a half-maximal effect (EC50) in the assay on KARN cells (Jurkat 2C4) (setting [2]) and in the assay on KARN cells (Jurkat 2C4) (setting [3]) were 11 nM and 32 nM, respectively.

For `CN(C)C1(C(=O)N[C@@H](CCCCCC(=O)c2ccon2)c2ncc(-c3ccccc3F)[nH]2)CCCC1` [Example 64], the IC50 on human HDAC2 was 2.1 nM; in assay [1] it was 0.64 nM; on human HDAC1, 0.58 nM; against HDAC6, more than 0.9 µM; on human HDAC8, 3.5 nM. The EC50 stood at 16 nM in the assay with KARN cells (Jurkat 2C4) (setting [2]) and 28 nM with KARN cells (Jurkat 2C4) (setting [3]).

In the case of `CN[C@@H](CCCCCC(=O)c1ncco1)c1ncc(-c2ccc3nc(C)ccc3c2)[nH]1` [Example 75, (S)-7-(methylamino)-7-(5-(2-methylquinolin-6-yl)-1H-imidazol-2-yl)-1-(oxazol-2-yl)heptan-1-one], the IC50 on human HDAC2 stood at 7 nM; in assay [1] it was 3.9 nM; on human HDAC1, 2.4 nM; against HDAC6 it was 26 µM; on human HDAC8, 3400 nM. Further, the EC50 in the assay with KARN cells (Jurkat 2C4) (setting [2]) amounted to 300 nM; in the assay on KARN cells (Jurkat 2C4) (setting [3]), 220 nM.

`COc1cc2nc(C)ccc2cc1-c1cnc([C@H](CCCCCC(=O)c2ncco2)NCc2ccccc2)[nH]1` [Example 82, (S)-7-(benzylamino)-7-(5-(7-methoxy-2-methylquinolin-6-yl)-1H-imidazol-2-yl)-1-(oxazol-2-yl)heptan-1-one]: the IC50 on human HDAC2 is 7.8 nM; in assay [1] it was 2.7 nM; against human HDAC1, 3.1 nM; at HDAC6, 1.5 µM; on human HDAC8 it was 1800 nM. Moreover, the EC50 with KARN cells (Jurkat 2C4) (setting [2]) stood at 180 nM; in the assay on KARN cells (Jurkat 2C4) (setting [3]), 320 nM.

With `COc1cc2nc(C)ccc2cc1-c1cnc([C@H](CCCCCC(=O)c2ccon2)NC(=O)CN(C)C)[nH]1` [Example 91], the IC50 at human HDAC2 came to 1.9 nM; in assay [1], 1.5 nM; against human HDAC1, 1.5 nM; at HDAC6, 11 µM; on human HDAC8, 14 nM. Moreover, the EC50 is 17 nM in the assay with KARN cells (Jurkat 2C4) (setting [2]) and 22 nM with KARN cells (Jurkat 2C4) (setting [3]).

Consider `COc1cc2c(ccc(=O)n2C)cc1-c1cnc([C@H](CCCCCC(=O)c2ncco2)NC(=O)CN(C)C)[nH]1` [Example 92], for which the IC50 on human HDAC2 is 6.2 nM; in assay [1] it was 1.1 nM; at human HDAC1, 0.92 nM; against HDAC6 it was 4.5 µM; at human HDAC8 it was 57 nM. The EC50 stood at 32 nM with KARN cells (Jurkat 2C4) (setting [2]) and 64 nM in the assay with KARN cells (Jurkat 2C4) (setting [3]).

Take `COc1cc2c(ccc(=O)n2C)cc1-c1cnc([C@H](CCCCCC(=O)c2ccon2)NC(=O)CN(C)C)[nH]1` [Example 93]: the IC50 came out at 2.2 nM at human HDAC2; 0.46 nM in assay [1]; 0.37 nM on human HDAC1; 4.5 µM at HDAC6; 3.5 nM on human HDAC8. The EC50 in the assay on KARN cells (Jurkat 2C4) (setting [2]) came out at 6.6 nM; in the assay with KARN cells (Jurkat 2C4) (setting [3]), 14 nM.

With `CCn1ccc2cc(-c3cnc([C@H](CCCCCC(=O)c4ncco4)NC(=O)CN(C)C)[nH]3)c(OC)cc2c1=O` [Example 96, (S)-2-(dimethylamino)-N-(1-(5-(2-ethyl-7-methoxy-1-oxo-1,2-dihydroisoquinolin-6-yl)-1H-imidazol-2-yl)-7-(oxazol-2-yl)-7-oxoheptyl)acetamide], the IC50 was determined as 3.8 nM at human HDAC2; 0.94 nM in assay [1]; 0.51 nM on human HDAC1; 0.92 µM at HDAC6; 57 nM on human HDAC8. The EC50 turned out to be 14 nM in the assay on KARN cells (Jurkat 2C4) (setting [2]) and 24 nM in the assay on KARN cells (Jurkat 2C4) (setting [3]).

Turning to `COc1cc2c(ccc(=O)n2C)cc1-c1cnc([C@H](CCCCCC(=O)c2ccon2)NC(=O)C2CN(C)C2)[nH]1` [Example 102, (S)-N-(7-(isoxazol-3-yl)-1-(5-(7-methoxy-1-methyl-2-oxo-1,2-dihydroquinolin-6-yl)-1H-imidazol-2-yl)-7-oxoheptyl)-1-methylazetidine-3-carboxamide], the IC50 is 0.78 nM on human HDAC2; 0.25 nM in assay [1]; 0.24 nM on human HDAC1; more than 0.9 µM on HDAC6; 3.1 nM on human HDAC8. The EC50 amounted to 170 nM with KARN cells (Jurkat 2C4) (setting [2]) and 270 nM in the assay on KARN cells (Jurkat 2C4) (setting [3]).

Turning to `COc1cc2nc(C)ccc2cc1-c1cnc([C@H](CCCCCC(=O)c2ccon2)NC(=O)C2CN(C)C2)[nH]1` [Example 103, (S)-N-(7-(isoxazol-3-yl)-1-(5-(7-methoxy-2-methylquinolin-6-yl)-1H-imidazol-2-yl)-7-oxoheptyl)-1-methylazetidine-3-carboxamide], the IC50 at human HDAC2 is 0.44 nM; in assay [1], 0.18 nM; against human HDAC1, 0.13 nM; at HDAC6 it was more than 0.9 µM; on human HDAC8, 3 nM. For the same compound, the EC50 with KARN cells (Jurkat 2C4) (setting [2]) is 6 nM; in the assay with KARN cells (Jurkat 2C4) (setting [3]), 8.3 nM.

Turning to `CN1CCC2(CC1)C[C@@H]2C(=O)N[C@@H](CCCCCC(=O)c1ccon1)c1[nH]c(-c2ccccc2F)nc1Cl` [Example 112, (S)-N-((S)-1-(4-chloro-2-(2-fluorophenyl)-1H-imidazol-5-yl)-7-(isoxazol-3-yl)-7-oxoheptyl)-6-methyl-6-azaspiro[2.5]octane-1-carboxamide], the IC50 on human HDAC2 is 0.25 nM; in assay [1], 0.035 nM; against human HDAC1, 0.083 nM; against HDAC6 it was 4.6 µM; on human HDAC8 it was 23 nM. Further, the EC50 with KARN cells (Jurkat 2C4) (setting [2]) and in the assay on KARN cells (Jurkat 2C4) (setting [3]) was 1.4 nM each time.

With `COc1cc2nc(C)ccc2cc1-c1cnc([C@H](CCCCCC(=O)c2ncco2)NC(=O)[C@H]2CC23CCN(C)CC3)o1` [Example 113, (S)-N-((S)-1-(5-(7-methoxy-2-methylquinolin-6-yl)oxazol-2-yl)-7-(oxazol-2-yl)-7-oxoheptyl)-6-methyl-6-azaspiro[2.5]octane-1-carboxamide], the IC50 on human HDAC2 came to 2.5 nM; in assay [1], 0.58 nM; against human HDAC1, 0.41 nM; against HDAC6, 0.2 µM; at human HDAC8, 180 nM. The values for the concentration giving a half-maximal response (EC50) in the assay on KARN cells (Jurkat 2C4) (setting [2]) and with KARN cells (Jurkat 2C4) (setting [3]) were 18 nM and 12 nM, respectively.

`COc1nc(C2CC2)ccc1-c1c[nH]c([C@H](CCCCCC(=O)c2ncco2)NC(=O)[C@H]2CC23CCN(C)CC3)n1` [Example 115, (S)-N-((S)-1-(4-(6-cyclopropyl-2-methoxypyridin-3-yl)-1H-imidazol-2-yl)-7-(oxazol-2-yl)-7-oxoheptyl)-6-methyl-6-azaspiro[2.5]octane-1-carboxamide]: the IC50 at human HDAC2 came out at 3.9 nM; in assay [1] it was 0.84 nM; at human HDAC1, 0.66 nM; at HDAC6, 0.3 µM; on human HDAC8, 51 nM. Besides, the values for the EC50 in the assay on KARN cells (Jurkat 2C4) (setting [2]) and in the assay with KARN cells (Jurkat 2C4) (setting [3]) were 37 nM and 58 nM, respectively.

On to `Cn1cc2cc(-n3ccc([C@@H](N)CCCCCC(=O)c4ncco4)n3)ccc2n1` [Example 128, (7S)-7-amino-7-[1-(2-methyl-2H-indazol-5-yl)-1H-pyrazol-3-yl]-1-(1,3-oxazol-2-yl)heptan-1-one], for which the half-maximal inhibitory concentration (IC50) on human HDAC2 turned out to be 55 nM; in assay [1] it was 10 nM; on human HDAC1, 8 nM; against HDAC6, 45 µM; on human HDAC8, 4300 nM. The figures for the EC50 in the assay on KARN cells (Jurkat 2C4) (setting [2]) and with KARN cells (Jurkat 2C4) (setting [3]) were 1200 nM and 1500 nM, respectively.

Regarding `N[C@@H](CCCCCC(=O)c1ncco1)c1ncc(-c2cccc(C(F)(F)F)c2F)[nH]1` [Example 138, (7S)-7-amino-7-{5-[2-fluoro-3-(trifluoromethyl)phenyl]-1H-imidazol-2-yl}-1-(1,3-oxazol-2-yl)heptan-1-one], the IC50 on human HDAC2 is 37 nM; in assay [1], 3.9 nM; on human HDAC1, 4.3 nM; on HDAC6, more than 0.9 µM; at human HDAC8, 250 nM. The EC50 in the assay with KARN cells (Jurkat 2C4) (setting [2]) amounted to 2200 nM; in the assay on KARN cells (Jurkat 2C4) (setting [3]) it was 3400 nM.

In the case of `N[C@@H](CCCCCC(=O)c1ncco1)c1ncc(-c2ccc(C(F)(F)F)cc2F)[nH]1` [Example 139, (7S)-7-amino-7-{5-[2-fluoro-4-(trifluoromethyl)phenyl]-1H-imidazol-2-yl}-1-(1,3-oxazol-2-yl)heptan-1-one], the IC50 is 28 nM on human HDAC2; 5.9 nM in assay [1]; 5.6 nM on human HDAC1; more than 0.9 µM on HDAC6; more than 900 nM at human HDAC8. The EC50 in the assay with KARN cells (Jurkat 2C4) (setting [2]) stood at 1700 nM; in the assay on KARN cells (Jurkat 2C4) (setting [3]), 2700 nM.

The IC50 is the point on the concentration scale where inhibition reaches its midpoint. One may read the EC50 as the concentration needed to bring the measured effect to its halfway point.
